Assay results taken from US20070197549A1, “Tetrazole compounds and their use as metabotropic glutamate receptor antagonists” (AstraZeneca AB, priority 2004, published 2007).

Target: T1, human mGluR5d (Homo sapiens, UniProt P41594)
T1 construct: expressed in transfected cells; GHEK cells stably expressing human mGluR5d are named only for the IP3 assay
Assay: FLIPR analysis of [Ca2+]i mobilization in cells expressing human mGluR5d
Type: cell-based
Experimental: For FLIPR analysis, cells expressing human mGluR5das described in WO97/05252 were seeded on collagen coated clear bottom 96-well plates with black sides and analysis of [Ca^2+]i mobilization was done 24 h after seeding.
FLIPR experiments were done using a laser setting of 0.800 W and a 0.4 second CCD camera shutter speed. Each FLIPR experiment was initiated with 160 μl of buffer present in each well of the cell plate. After each addition of the compound, the fluorescence signal was sampled 50 times at 1 second intervals followed by 3 samples at 5 second intervals. Responses were measured as the peak height of the response within the sample period. EC50 and IC50 determinations were made from data obtained from 8-point concentration response curves (CRC) performed in duplicate. Agonist CRC were generated by scaling all responses to the maximal response observed for the plate. […]
FLIPR experiments were done using a laser setting of 0.800 W and a 0.4 second CCD camera shutter speed with excitation and emission wavelengths of 488 nm and 562 nm, respectively. […] After each addition the fluorescence signal was sampled 50 times at 1 second intervals followed by 3 samples at 5 second intervals. Responses were measured as the peak height of the response within the sample period. […]

T1 sequence (P41594 21-942 isoform P41594-3 limits assumed): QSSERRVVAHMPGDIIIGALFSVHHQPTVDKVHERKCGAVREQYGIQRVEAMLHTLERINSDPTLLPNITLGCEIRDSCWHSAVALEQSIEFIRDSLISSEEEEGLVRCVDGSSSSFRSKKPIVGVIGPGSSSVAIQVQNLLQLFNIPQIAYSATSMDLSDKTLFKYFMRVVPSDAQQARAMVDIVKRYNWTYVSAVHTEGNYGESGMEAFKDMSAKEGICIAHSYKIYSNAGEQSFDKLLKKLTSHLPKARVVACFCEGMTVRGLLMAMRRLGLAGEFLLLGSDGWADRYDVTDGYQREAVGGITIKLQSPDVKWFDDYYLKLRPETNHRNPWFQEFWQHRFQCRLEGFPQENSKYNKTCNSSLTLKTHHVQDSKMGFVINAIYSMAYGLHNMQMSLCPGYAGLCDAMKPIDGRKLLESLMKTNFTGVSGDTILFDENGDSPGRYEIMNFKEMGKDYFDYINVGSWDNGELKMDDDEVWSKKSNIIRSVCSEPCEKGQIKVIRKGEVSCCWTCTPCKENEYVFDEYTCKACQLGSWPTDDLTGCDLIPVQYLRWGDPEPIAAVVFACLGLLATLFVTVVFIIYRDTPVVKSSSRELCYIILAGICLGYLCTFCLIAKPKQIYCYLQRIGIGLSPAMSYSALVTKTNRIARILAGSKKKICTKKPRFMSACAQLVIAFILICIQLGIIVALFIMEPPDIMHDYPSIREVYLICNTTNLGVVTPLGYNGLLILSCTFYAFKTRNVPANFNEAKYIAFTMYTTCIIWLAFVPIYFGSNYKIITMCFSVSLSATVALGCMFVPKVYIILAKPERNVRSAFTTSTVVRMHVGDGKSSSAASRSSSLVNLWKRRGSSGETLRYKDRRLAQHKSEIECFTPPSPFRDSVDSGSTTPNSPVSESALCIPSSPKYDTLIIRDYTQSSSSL

| IC50 [µM] | SMILES |
| --- | --- |
| 0.055 | CC(Sc1nnc(-c2ccncc2)n1C)c1nnn(-c2cc(Cl)ccc2F)n1 (centres unmarked) [4-(5-{1-[2-(5-Chloro-2-fluoro-phenyl)-2H-tetrazol-5-yl]-ethylsulfanyl}-4-methyl-4H-[1,2,4]triazol-3-yl)-pyridine] |
| 0.132 | CCOC(=O)N1CCN(C(C)c2nnn(-c3cccc(Cl)c3)n2)CC1 (centres unmarked) [Ethyl 4-{1-[2-(3-chlorophenyl)-2H-tetrazol-5-yl]ethyl}piperazine-1-carboxylate] |
